Measured values published in PubChem BioAssay AID588710 (Vanderbilt Specialized Chemistry Center, 2011).

Target: Metabotropic glutamate receptor 5 (Rattus norvegicus) (UniProt P31424)
Assay: PubChem AID 588710
Details: HEK293 rat mGluR5 membranes, [3H]methoxyPEPy displacement

Chain of Metabotropic glutamate receptor 5 (Rattus norvegicus) (P31424 whole entry, looked up): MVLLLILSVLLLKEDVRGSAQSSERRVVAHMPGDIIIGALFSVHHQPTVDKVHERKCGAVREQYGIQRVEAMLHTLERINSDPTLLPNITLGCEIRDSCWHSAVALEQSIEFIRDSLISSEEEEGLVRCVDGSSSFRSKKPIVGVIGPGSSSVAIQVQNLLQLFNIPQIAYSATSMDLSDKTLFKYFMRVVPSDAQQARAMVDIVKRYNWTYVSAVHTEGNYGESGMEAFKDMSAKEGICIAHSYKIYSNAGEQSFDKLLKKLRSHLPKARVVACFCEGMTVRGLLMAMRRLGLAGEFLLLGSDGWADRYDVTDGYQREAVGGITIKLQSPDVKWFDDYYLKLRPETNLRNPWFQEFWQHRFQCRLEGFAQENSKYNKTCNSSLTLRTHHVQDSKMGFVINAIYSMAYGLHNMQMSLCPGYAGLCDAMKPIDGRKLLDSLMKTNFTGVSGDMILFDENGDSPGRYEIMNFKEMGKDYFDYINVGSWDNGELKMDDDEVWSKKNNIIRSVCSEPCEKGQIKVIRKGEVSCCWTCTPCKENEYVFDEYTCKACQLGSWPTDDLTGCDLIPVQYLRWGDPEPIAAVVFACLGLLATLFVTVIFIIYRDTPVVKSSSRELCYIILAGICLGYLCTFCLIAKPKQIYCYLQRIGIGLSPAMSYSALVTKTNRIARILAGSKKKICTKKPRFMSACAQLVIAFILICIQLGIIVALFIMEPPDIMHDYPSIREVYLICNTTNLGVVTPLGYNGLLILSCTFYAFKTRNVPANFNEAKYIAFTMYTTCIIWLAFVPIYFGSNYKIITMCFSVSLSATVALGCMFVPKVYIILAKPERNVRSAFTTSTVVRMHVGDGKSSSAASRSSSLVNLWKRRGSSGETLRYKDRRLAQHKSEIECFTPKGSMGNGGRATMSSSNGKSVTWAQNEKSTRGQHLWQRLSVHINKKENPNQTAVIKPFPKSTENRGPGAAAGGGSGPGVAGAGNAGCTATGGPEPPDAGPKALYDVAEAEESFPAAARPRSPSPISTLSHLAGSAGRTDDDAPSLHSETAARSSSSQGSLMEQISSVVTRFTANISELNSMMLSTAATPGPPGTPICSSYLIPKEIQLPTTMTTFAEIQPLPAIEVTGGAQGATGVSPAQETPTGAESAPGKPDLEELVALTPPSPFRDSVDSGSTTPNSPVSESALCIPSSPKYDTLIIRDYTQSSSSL

In the case of `C[C@@H](NC(=O)c1ccc(C#Cc2cccc(F)c2)cn1)C(C)(C)O`, the IC50 is reported as 4.84 nM.
